Results reported in ChEMBL document CHEMBL6153050, “Repurposing FDA-approved drugs to target G-quadruplexes in breast cancer” (Eur J Med Chem, 2025).
The source made the active and inactive calls. The calls are words filed in the database; no cut-off is given here.

Columns and labels:
Quadruplex DNA [1] = conditions: time 10.0 min
Quadruplex DNA [2] = conditions: time 10.0 min; remark: listed apart in the source
Quadruplex RNA [3] = conditions: time 10.0 min
Quadruplex RNA [4] = conditions: time 10.0 min; remark: listed apart in the source
Quadruplex DNA [5] = conditions: time 10.0 min; remark: listed apart in the source
Quadruplex DNA [6] = conditions: time 10.0 min; remark: listed apart in the source
MDA-MB-231 [7] = test: Induction of DNA damage in human MDA-MB-231 cells assessed as increase in gamma-H2AX level at IC50 concentration incubated for 6 days by flow cytometric analysis; assay type: functional, cell-based; conditions: time 6.0 day
Quadruplex DNA [8] = test: Stabilization of G4 quadruplex DNA (unknown origin) in human MDA-MB-231 cells at IC25 concentration incubated for 6 days by flow cytometric analysis; assay type: cell-based; conditions: time 6.0 day
MCF7 [9] = test: Cytotoxicity against human MCF7 cells assessed as reduction in cell viability incubated for 6 days by SRB assay; assay type: functional, cell-based; conditions: for IC25: time 6 day
MCF7 [10] = test: Induction of DNA damage in human MCF7 cells assessed as increase in gamma-H2AX level at IC25 concentration incubated for 6 days by flow cytometric analysis; assay type: functional, cell-based; conditions: time 6.0 day
Quadruplex DNA [11] = test: Stabilization of G4 quadruplex DNA (unknown origin) in human MCF7 cells at IC50 concentration incubated for 6 days by flow cytometric analysis; assay type: cell-based; conditions: time 6.0 day
Quadruplex DNA [12] = test: Stabilization of G4 quadruplex DNA (unknown origin) in human MCF7 cells at IC25 concentration incubated for 6 days by flow cytometric analysis; assay type: cell-based; conditions: time 6.0 day
MCF7 [13] = test: Induction of DNA damage in human MCF7 cells assessed as increase in gamma-H2AX level at IC50 concentration incubated for 6 days by flow cytometric analysis; assay type: functional, cell-based; conditions: time 6.0 day
MDA-MB-231 [14] = test: Cytotoxicity against human MDA-MB-231 cells assessed as reduction in cell viability incubated for 6 days by SRB assay; assay type: functional, cell-based; conditions: for IC25: time 6 day
Quadruplex DNA [15] = test: Stabilization of G4 quadruplex DNA (unknown origin) in human MDA-MB-231 cells at IC50 concentration incubated for 6 days by flow cytometric analysis; assay type: cell-based; conditions: time 6.0 day
MDA-MB-231 [16] = test: Effect on cell cycle arrest in human MDA-MB-231 cells at IC25 concentration incubated for 6 days by PI staining based flow cytometric analysis; assay type: functional; conditions: time 6.0 day
MCF7 [17] = test: Effect on cell cycle arrest in human MCF7 cells at IC50 concentration incubated for 6 days by PI staining based flow cytometric analysis; assay type: functional; conditions: time 6.0 day
MDA-MB-231 [18] = test: Induction of DNA damage in human MDA-MB-231 cells assessed as increase in gamma-H2AX level at IC25 concentration incubated for 6 days by flow cytometric analysis; assay type: functional, cell-based; conditions: time 6.0 day
MCF7 [19] = test: Effect on cell cycle arrest in human MCF7 cells at IC25 concentration incubated for 6 days by PI staining based flow cytometric analysis; assay type: functional; conditions: time 6.0 day
MDA-MB-231 [20] = test: Effect on cell cycle arrest in human MDA-MB-231 cells at IC50 concentration incubated for 6 days by PI staining based flow cytometric analysis; assay type: functional; conditions: time 6.0 day
Quadruplex DNA [21] = test: Binding affinity to c-Myc G4 quadruplex DNA (TGAGGGTGGGTAGGGTGGGTAA) (unknown origin) assessed as change in entropy by ITC analysis; assay type: nucleic-acid assay
Quadruplex DNA [22] = test: Binding affinity to c-Myc G4 quadruplex DNA (TGAGGGTGGGTAGGGTGGGTAA) (unknown origin) assessed as Gibbs free energy by ITC analysis; assay type: nucleic-acid assay
MDA-MB-231 [23] = test: Induction of cell cycle arrest in human MDA-MB-231 cells assessed as reduction in G1 phase at IC25 concentration incubated for 6 days by PI staining based flow cytometric analysis; assay type: functional; conditions: time 6.0 day
SK-BR-3 [24] = test: Induction of cell cycle arrest in human SK-BR-3 cells assessed as accumulation of cells at G2/M phase at IC50 concentration incubated for 6 days by PI staining based flow cytometric analysis; assay type: functional; conditions: time 6.0 day
SK-BR-3 [25] = test: Induction of DNA damage in human SK-BR-3 cells assessed as increase in gamma-H2AX level at IC50 concentration incubated for 6 days by flow cytometric analysis; assay type: functional, cell-based; conditions: time 6.0 day
Quadruplex DNA [26] = test: Binding affinity to c-Myc G4 quadruplex DNA (TGAGGGTGGGTAGGGTGGGTAA) (unknown origin) assessed as binding enthalpy by ITC analysis; assay type: nucleic-acid assay
Quadruplex DNA [27] = test: Stabilization of G4 quadruplex DNA (unknown origin) in human SK-BR-3 cells assessed as increase in G4 motif at IC50 concentration incubated for 6 days by flow cytometric analysis; assay type: cell-based; conditions: time 6.0 day
Quadruplex DNA [28] = test: Binding affinity to HER2 G4 quadruplex DNA (GGAGAAGGAGGAGGTGGAGGAGGAGGG) (unknown origin) assessed as equilibrium binding constant (Ka) by ITC analysis; assay type: nucleic-acid assay
SK-BR-3 [29] = test: Cytotoxicity against human SK-BR-3 cells assessed as reduction in cell viability incubated for 6 days by SRB assay; assay type: functional, cell-based
MCF7 [30] = test: Downregulation of c-MYC protein expression in human MCF7 cells at IC25 concentration incubated for 6 days by Western blotting analysis; assay type: functional, cell-based; conditions: time 6.0 day
Quadruplex DNA [31] = test: Binding affinity to HER2 G4 quadruplex DNA (GGAGAAGGAGGAGGTGGAGGAGGAGGG) (unknown origin) assessed as change in entropy by ITC analysis; assay type: nucleic-acid assay
Quadruplex DNA [32] = test: Binding affinity to c-Myc G4 quadruplex DNA (TGAGGGTGGGTAGGGTGGGTAA) (unknown origin) assessed as equilibrium binding constant (Ka) by ITC analysis; assay type: nucleic-acid assay
SK-BR-3 [33] = test: Induction of DNA damage in human SK-BR-3 cells assessed as increase in gamma-H2AX level at IC25 concentration incubated for 6 days by flow cytometric analysis; assay type: functional, cell-based; conditions: time 6.0 day
SK-BR-3 [34] = test: Induction of cell cycle arrest in human SK-BR-3 cells assessed as accumulation of cells at G2/M phase at IC25 concentration incubated for 6 days by PI staining based flow cytometric analysis; assay type: functional; conditions: time 6.0 day
Quadruplex DNA [35] = test: Binding affinity to HER2 G4 quadruplex DNA (GGAGAAGGAGGAGGTGGAGGAGGAGGG) (unknown origin) assessed as Gibbs free energy by ITC analysis; assay type: nucleic-acid assay
Quadruplex DNA [36] = test: Binding affinity to HER2 G4 quadruplex DNA (GGAGAAGGAGGAGGTGGAGGAGGAGGG) (unknown origin) assessed as binding enthalpy by ITC analysis; assay type: nucleic-acid assay
[37] = Homo sapiens, MDA-MB-231, 144 h

In the case of `COc1c(-c2ccc3cc(NS(C)(=O)=O)ccc3c2)cc(-n2ccc(=O)[nH]c2=O)cc1C(C)(C)C`, the deltaTm1/2 (Quadruplex DNA [1]) is reported as 4.5 °C, the deltaTm1/2 (Quadruplex DNA [2]) is reported as -0.7 °C and the deltaTm1/2 (Quadruplex RNA [3]) is reported as -0.3 °C. It also gave a deltaTm1/2 (Quadruplex RNA [4]) of 2.6 °C, a deltaTm1/2 (Quadruplex DNA [5]) of 1.4 °C and a deltaTm1/2 (Quadruplex DNA [6]) of -0.4 °C.
Work on `CCc1cc2c(cc1N1CCC(N3CCOCC3)CC1)C(C)(C)c1[nH]c3cc(C#N)ccc3c1C2=O` yielded a deltaTm1/2 (Quadruplex DNA [1]) of -3.3 °C, a deltaTm1/2 (Quadruplex DNA [2]) of -1.1 °C and a deltaTm1/2 (Quadruplex RNA [3]) of 1.1 °C. It also gave a deltaTm1/2 (Quadruplex RNA [4]) of 4.6 °C, a deltaTm1/2 (Quadruplex DNA [5]) of 2.5 °C and a deltaTm1/2 (Quadruplex DNA [6]) of 0 °C.
Molecule `CCN(CC)CCCC(C)Nc1c2ccc(Cl)cc2nc2ccc(OC)cc12` (centres undefined) has a deltaTm1/2 (Quadruplex DNA [1]) of 18.5 °C, a deltaTm1/2 (Quadruplex DNA [2]) of over 20 °C and a deltaTm1/2 (Quadruplex RNA [3]) of 15.4 °C. For the same molecule, the deltaTm1/2 (Quadruplex RNA [4]) was over 20 °C, the deltaTm1/2 (Quadruplex DNA [5]) was over 20 °C and the deltaTm1/2 (Quadruplex DNA [6]) was over 20 °C.
Work on `Cc1cc2ncc(C(=O)NCC(C)(C)NCC(=O)N3CCC[C@H]3C#N)cn2n1` yielded a deltaTm1/2 (Quadruplex DNA [1]) of 5.4 °C, a deltaTm1/2 (Quadruplex DNA [2]) of -0.9 °C and a deltaTm1/2 (Quadruplex RNA [3]) of 0.4 °C. For the same molecule, the deltaTm1/2 (Quadruplex RNA [4]) was 1.9 °C, the deltaTm1/2 (Quadruplex DNA [5]) was 3.1 °C and the deltaTm1/2 (Quadruplex DNA [6]) was -0.1 °C.
`O=C(c1ccc(OCCN2CCCCC2)cc1)c1c(-c2ccc(O)cc2)sc2cc(O)ccc12` [RALOXIFENE] was tested, and the deltaTm1/2 (Quadruplex DNA [1]) was 3.2 °C, the deltaTm1/2 (Quadruplex DNA [2]) was 7.8 °C and the Activity (MDA-MB-231 [7]) was “inactive”. The Activity (Quadruplex DNA [8]) was “inactive”, the deltaTm1/2 (Quadruplex RNA [3]) was 1.6 °C and the IC50 (MCF7 [9]; Homo sapiens, MCF7, 144 h) was 2700 nM. The IC25 (MCF7 [9]; Homo sapiens, MCF7, 144 h, read-out: IC25) was 630 nM, the Activity (MCF7 [10]) was “inactive” and the Activity (Quadruplex DNA [11]) was “inactive”. For the same molecule, the deltaTm1/2 (Quadruplex RNA [4]) was 6.3 °C, the Activity (Quadruplex DNA [12]) was “inactive” and the Activity (MCF7 [13]) was “inactive”. For the same molecule, the IC50 (MDA-MB-231 [14]; [37]) was 10300 nM, the IC25 (MDA-MB-231 [14]; Homo sapiens, MDA-MB-231, 144 h, read-out: IC25) was 8200 nM and the Activity (Quadruplex DNA [15]) was “inactive”. For the same molecule, the Activity (MDA-MB-231 [16]) was “inactive”, the Activity (MCF7 [17]) was “inactive” and the Activity (MDA-MB-231 [18]) was “inactive”. The deltaTm1/2 (Quadruplex DNA [5]) was 11 °C, the Activity (MCF7 [19]) was “inactive” and the deltaTm1/2 (Quadruplex DNA [6]) was 4 °C. For the same molecule, the Activity (MDA-MB-231 [20]) was “inactive”.
With `CCCCOc1cc(C(=O)NCCN(CC)CC)c2ccccc2n1` the deltaTm1/2 (Quadruplex DNA [1]) was 4.4 °C, the deltaTm1/2 (Quadruplex DNA [2]) was 2.8 °C and the deltaTm1/2 (Quadruplex RNA [3]) was 1 °C. It also gave a deltaTm1/2 (Quadruplex RNA [4]) of 3.2 °C, a deltaTm1/2 (Quadruplex DNA [5]) of 5.4 °C and a deltaTm1/2 (Quadruplex DNA [6]) of 0.2 °C.
For `CC[C@@]1(O)C(=O)OCc2c1cc1n(c2=O)Cc2c-1nc1ccccc1c2CCNC(C)C` [BELOTECAN], the deltaTm1/2 (Quadruplex DNA [1]) was 7.5 °C, the TdeltaS (Quadruplex DNA [21]) was 1.79 kcal/mol and the deltaG (Quadruplex DNA [22]) was -7.29 kcal/mol. The Activity (MDA-MB-231 [23]) was “Active”, the deltaTm1/2 (Quadruplex DNA [2]) was 12.7 °C and the Activity (SK-BR-3 [24]) was “Active”. The Activity (SK-BR-3 [25]) was “Active; Slightly Lower Dna Damage Observed”, the deltaH (Quadruplex DNA [26]) was -5.5 kcal/mol and the deltaTm1/2 (Quadruplex RNA [3]) was 6.6 °C. For the same molecule, the Activity (Quadruplex DNA [27]) was “Active”, the IC50 (MCF7 [9]; Homo sapiens, MCF7, 144 h) was 1.2 nM and the IC25 (MCF7 [9]) was 0.5 10^-3microM. For the same molecule, the Activity (MCF7 [10]) was “Active; Slightly Lower Dna Damage Observed”, the Ka (Quadruplex DNA [28]) was 2.3 10^5/M and the IC50 (SK-BR-3 [29]; Homo sapiens, SK-BR-3, 144 h) was 2 nM. For the same molecule, the IC25 (SK-BR-3 [29]; time 6 day) was 0.9 10^-3microM, the deltaTm1/2 (Quadruplex RNA [4]) was 14.7 °C and the Activity (MCF7 [30]) was “Active”. For the same molecule, the Activity (Quadruplex DNA [12]) was “Active”, the Activity (MCF7 [13]) was “Active; Slightly Lower Dna Damage Observed” and the TdeltaS (Quadruplex DNA [31]) was 0.621 kcal/mol. The IC50 (MDA-MB-231 [14]; [37]) was 2.4 nM, the IC25 (MDA-MB-231 [14]) was 1.4 10^-3microM and the Ka (Quadruplex DNA [32]) was 2.3 10^5/M. For the same molecule, the Activity (SK-BR-3 [33]) was “Active; Slightly Lower Dna Damage Observed”, the Activity (SK-BR-3 [34]) was “Active” and the deltaG (Quadruplex DNA [35]) was -7.31 kcal/mol. For the same molecule, the deltaTm1/2 (Quadruplex DNA [5]) was 16.2 °C, the deltaH (Quadruplex DNA [36]) was -6.69 kcal/mol and the deltaTm1/2 (Quadruplex DNA [6]) was 15.9 °C.
`N[C@@H]1CCCCN(c2c(F)cc3c(=O)c(C(=O)O)cn(C4CC4)c3c2Cl)C1` showed a deltaTm1/2 (Quadruplex DNA [1]) of 1.7 °C, a deltaTm1/2 (Quadruplex DNA [2]) of -0.3 °C and a deltaTm1/2 (Quadruplex RNA [3]) of 1.7 °C. For the same molecule, the deltaTm1/2 (Quadruplex RNA [4]) was 2.8 °C, the deltaTm1/2 (Quadruplex DNA [5]) was 4.9 °C and the deltaTm1/2 (Quadruplex DNA [6]) was 1.3 °C.
Work on `COc1ccc(-c2cc(=O)c3c(OC)c(OC)c(OC)cc3o2)cc1OC` yielded a deltaTm1/2 (Quadruplex DNA [1]) of 4 °C, a deltaTm1/2 (Quadruplex DNA [2]) of 5.3 °C and a deltaTm1/2 (Quadruplex RNA [3]) of 1.1 °C. The deltaTm1/2 (Quadruplex RNA [4]) was 8.1 °C, the deltaTm1/2 (Quadruplex DNA [5]) was 10.6 °C and the deltaTm1/2 (Quadruplex DNA [6]) was 1.5 °C.
